The record followed here is patent publication US20210290648A1, “Potentiation of B-Lactam Antibiotics and B-Lactam/B-Lactamase Inhibitor Combinations Against Multidrug and Extensively Drug-Resistant Pseudomonas Aeruginosa Using Non-Ribosomal Tobramycin-Cyclam Conjugates” (University of Manitoba, priority 2018, published 2021).

The subject of the assay is WT P. aeruginosa PAO1. The experiment in a line: Checkerboard combination study / MIC. Particulars: for MIC: Pseudomonas aeruginosa, PAO1, 18 h, antibiotic alone, WT PAO1 (Table 2), read-out: MIC alone; for FICI in the presence of ≤10 μM of 1: antibiotic + compound 1; for FICI in the presence of ≤10 μM of 1 / MIC of Antibiotics in the presence of ≤10 μM of 1 / FICI in the presence of ≤10 μM of 2 / MIC of Antibiotics in the presence of ≤10 μM of 2 / FICI in the presence of ≤10 μM of 3 / MIC of Antibiotics in the presence of ≤10 μM of 3 / FICI with compounds 1-3: WT PAO1; for MIC of Antibiotics in the presence of ≤10 μM of 1: antibiotic + compound 1 ≤10 μM; for FICI in the presence of ≤10 μM of 2: antibiotic + compound 2; for MIC of Antibiotics in the presence of ≤10 μM of 2: antibiotic + compound 2 ≤10 μM; for FICI in the presence of ≤10 μM of 3: antibiotic + compound 3; for MIC of Antibiotics in the presence of ≤10 μM of 3: antibiotic + compound 3 ≤10 μM; for FICI with compounds 1-3: antibiotic + compounds 1-3 at ≤10 μM (≤16 μg/mL). It counts as cell-based, Pseudomonas aeruginosa.

As a reminder, the MIC is the lowest concentration found to suppress growth. Take `CCC[C@@H]1C[C@@H](C(=O)N[C@@H]([C@H]2O[C@H](SC)[C@H](O)[C@@H](O)[C@H]2O)[C@H](C)Cl)N(C)C1` [Clindamycin]: the minimal inhibitory concentration (MIC) came to 1020 µg/mL, the “FICI in the presence of ≤10 μM of 1” value is 0.50, the “MIC of Antibiotics in the presence of ≤10 μM of 1” value (“MIC of Antibiotics … of 1” for short) is 512 µg/mL and the “FICI in the presence of ≤10 μM of 2” value is reported as 0.51. Further, the “MIC of Antibiotics in the presence of ≤10 μM of 2” value (shortened to “MIC of Antibiotics … of 2”) stood at 512 µg/mL, the “FICI in the presence of ≤10 μM of 3” value worked out at 0.07 and the “MIC of Antibiotics in the presence of ≤10 μM of 3” value (“MIC of Antibiotics … of 3” below) was determined as 64 µg/mL.

As for `O=C(N[C@H](CO)[C@H](O)c1ccc([N+](=O)[O-])cc1)C(Cl)Cl` [Chloramphenicol], the MIC was found to be 32 µg/mL, the “FICI in the presence of ≤10 μM of 1” value worked out at 0.25, the “MIC of Antibiotics … of 1” value amounted to 8 µg/mL and the “FICI in the presence of ≤10 μM of 2” value was 0.13. Besides, the “MIC of Antibiotics … of 2” value is 4 µg/mL, the “FICI in the presence of ≤10 μM of 3” value was determined as 0.25 and the “MIC of Antibiotics … of 3” value amounted to 8 µg/mL.

On to `CO[C@@H]1[C@@H](OC(N)=O)[C@@H](O)[C@H](Oc2ccc3c(O)c(NC(=O)c4ccc(O)c(CC=C(C)C)c4)c(=O)oc3c2C)OC1(C)C` [Novobiocin], for which the MIC was determined as 512 µg/mL, the “FICI in the presence of ≤10 μM of 1” value is 0.13, the “MIC of Antibiotics … of 1” value is 64 µg/mL and the “FICI in the presence of ≤10 μM of 2” value is on record as 0.13. Moreover, the “MIC of Antibiotics … of 2” value came to 64 µg/mL, the “FICI in the presence of ≤10 μM of 3” value turned out to be 0.08, the “MIC of Antibiotics … of 3” value was found to be 32 µg/mL and the “FICI with compounds 1-3” value is 0.08-0.13.

For the compound `CO[C@H]1/C=C/O[C@@]2(C)Oc3c(C)c(O)c4c(O)c(c(/C=N/N5CCN(C)CC5)c(O)c4c3C2=O)NC(=O)/C(C)=C\C=C\[C@H](C)[C@H](O)[C@@H](C)[C@@H](O)[C@@H](C)[C@H](OC(C)=O)[C@@H]1C` [Rifampicin], the MIC was 16 µg/mL, the “FICI in the presence of ≤10 μM of 1” value is listed as 0.13, the “MIC of Antibiotics … of 1” value was 2 µg/mL and the “FICI in the presence of ≤10 μM of 2” value worked out at 0.13. Also, the “MIC of Antibiotics … of 2” value was 2 µg/mL, the “FICI in the presence of ≤10 μM of 3” value turned out to be 0.25, the “MIC of Antibiotics … of 3” value stood at 4 µg/mL and the “FICI with compounds 1-3” value is reported as 0.13-0.25.

In the case of `C[C@H]1c2cccc(O)c2C(=O)C2=C(O)[C@]3(O)C(=O)C(C(N)=O)=C(O)[C@@H](N(C)C)[C@@H]3[C@@H](O)[C@@H]21` [Doxycycline], the MIC came out at 8 µg/mL, the “FICI in the presence of ≤10 μM of 1” value is 0.50, the “MIC of Antibiotics … of 1” value was 4 µg/mL and the “FICI in the presence of ≤10 μM of 2” value is given as 0.13. For the same compound, the “MIC of Antibiotics … of 2” value turned out to be 1 µg/mL, the “FICI in the presence of ≤10 μM of 3” value turned out to be 0.08 and the “MIC of Antibiotics … of 3” value stood at 0.5 µg/mL.

Consider `O=C1CN(/N=C/c2ccc([N+](=O)[O-])o2)C(=O)N1` [Nitrofurantoin], for which the MIC was 1020 µg/mL, the “FICI in the presence of ≤10 μM of 1” value is given as 1.00, the “MIC of Antibiotics … of 1” value came out at 1024 µg/mL and the “FICI in the presence of ≤10 μM of 2” value came to 1.00. The “MIC of Antibiotics … of 2” value stood at 1024 µg/mL, the “FICI in the presence of ≤10 μM of 3” value stood at 1.02, the “MIC of Antibiotics … of 3” value was 1024 µg/mL and the “FICI with compounds 1-3” value stood at 1.

`CC[C@H]1OC(=O)[C@H](C)[C@@H](O[C@H]2C[C@@](C)(OC)[C@@H](O)[C@H](C)O2)[C@H](C)[C@@H](O[C@@H]2O[C@H](C)C[C@H](N(C)C)[C@H]2O)[C@](C)(O)C[C@@H](C)C(=O)[C@H](C)[C@@H](O)[C@]1(C)O` [Erythromycin]: the MIC was 512 µg/mL, the “FICI in the presence of ≤10 μM of 1” value came out at 0.50, the “FICI in the presence of ≤10 μM of 2” value is reported as 0.50 and the “FICI in the presence of ≤10 μM of 3” value worked out at 0.25.
